# Reference: patent publication US20250360071A1, “AGENT FOR INDUCING CILIUM” (MED R&D Co. Ltd, priority 2022, published 2025)
# Key:
# [1] = tested on: HFDPCs; experiment: Co-culture system of Caco-2 and HFDPC, hair growth marker expression, Experimental Example 4; type: cell-based, human; conditions: added inside the Caco-2 insert; saponin mixture 5 μg/mL, finasteride 10 μM; after 2, 6 and 12 hours; vs control
# Procedure: An examination was carried out using a co-culture system of Caco-2 and an HFDPC which are human intestinal epithelial cell lines. FIG. 8 is a schematic view illustrating a co-culture system of the present Experimental Example. […] A permeable membrane having a pore size of […] was disposed on the bottom surface of the 96-well insert. […] In a case where the drug is permeable to the intestinal epithelial cells, with the addition of the drug into the inside of the transwell insert of the co-culture system, the drug permeates from the apex side (lumen side) to the basal side (vascular side) of the Caco-2 cells. Furthermore, the drug that permeated acts on the HFDPCs seeded on the receiver plate. A mixture in which each saponin was mixed at a ratio shown in Table 1 below (which may hereinafter be referred to as a “saponin mixture”) was used as a sample for the examination. The saponin mixture was added to the inside of the transwell insert of the co-culture system so that a concentration thereof was 5 μg/mL. Subsequently, the expression of the hair growth marker in the HFDPCs seeded on the receiver plate was measured by quantitative real-time PCR after 2 hours, 6 hours, and 12 hours. As the hair growth markers, a CTNNB1 gene (β-catenin), an ALPL gene (alkaline phosphatase), and an FGF1 gene (fiblobrast growth factor 1) were measured. […]
# [2] = tested on: dorsal skin; experiment: Fluorescence immunostaining of dorsal skin tissue sections, Experimental Example 10; type: in vivo, mouse; conditions: 20th day
# Source text: A mouse in each group of Experimental Examples 5 and 6 was euthanized on the 20th day, the dorsal skin was collected, and the tissue section was subjected to immunostaining.
# FIG. 23 is a photomicrograph showing the results of detecting the expressions of β-catenin and K14 by fluorescence immunostaining. In addition, the nuclei were stained with 4′,6-diamidino-2-phenylindole (DAPI). The β-catenin is a hair growth promoting marker and is also a marker for the start of the anagen. K14 is an epidermal marker and is known to increase with the differentiation of hair follicle stem cells.
# FIG. 24 is a photomicrograph showing the results of detecting the expression of VEGF by fluorescence immunostaining. In addition, the nuclei were stained with DAPI. VEGF is known to improve the vascularization of hair follicles, increase the size of hair follicles and hair, and promote the growth and circulation of hair follicles.
# [3] = tested on: dorsal skin; experiment: Gene ontology (GO), GO enrichment and tissue-specific expression analysis of transcriptome, Experimental Example 7; type: in vivo, mouse; conditions: 20th day
# Procedure: Gene ontology (GO) analysis and GO enrichment analysis were performed based on the results of the transcriptome analysis in Experimental Example 6.
# Subsequently, term enrichment analysis of the genes with expression increased specifically with respect to the skin tissue was performed. Using tissue-specific expression analysis (TSEA), genes related to the skin tissue were filtered, and functions that were specifically enriched in the maslinic acid treatment group and the tieghemelin treatment group and were not enriched in the minoxidil treatment group were selected.
# [4] = tested on: dorsal skin; experiment: Transcriptome analysis and extended network analysis of dorsal skin, Experimental Examples 6 and 8; type: in vivo, mouse; conditions: 20th day, 1% applied daily; maslinic acid group vs tieghemelin group
# Procedure: A mouse in each group of Experimental Example 5 and a mouse in the group which had been subjected to the same treatment as in Experimental Example 5 using 1% tieghemelin (n=6) were euthanized on the 20th day, and the dorsal skin was collected and subjected to transcriptome analysis.
# (§1) Extended network analysis was performed based on the results of the transcriptome analysis in Experimental Example 6. FIGS. 20 to 22 are views showing the results of the extended network analysis. FIG. 20 is an analysis result obtained from a dataset of the minoxidil treatment group, FIG. 21 is an analysis result obtained from a dataset of the maslinic acid treatment group, and FIG. 22 is an analysis result obtained from a dataset of the tieghemelin treatment group. In FIGS. 20 to 22, a white circle indicates a gene with increased expression, and a black circle indicates a gene with decreased expression. In addition, the size of the circle indicates the magnitude of a change in expression level.
# [5] = tested on: hair cycle-related genes; experiment: Fluctuation in expression of hair cycle-related genes from transcriptome, Experimental Example 9; type: in vivo, mouse; conditions: dorsal skin, 20th day
# Source text: A fluctuation in expression of the hair cycle-related genes was examined, based on the results of the transcriptome analysis in Experimental Example 6.
# [6] = tested on: C3H male mouse; experiment: Hair growth promoting effect in vivo, application to depilated dorsal skin, Experimental Example 5
# Procedure: The oleanane-type triterpenoid was applied to the dorsal skin of a mouse and the hair growth promoting effect was examined. Maslinic acid was used as the oleanane-type triterpenoid. In addition, for comparison, a group in which minoxidil was used and a control group in which only a solvent was applied were prepared.
# FIG. 12 is a schematic view showing an experimental schedule. After acclimatization of a C3H male mouse, the dorsal skin was depilated with a shaver and a depilatory cream. Thereafter, 150 μL of 1% minoxidil (n=8), 1% maslinic acid (n=6), or a solvent (n=8) was applied to the mouse in each group every day for 20 days, and the mouse was observed over time.
# It is known that the hair cycle of a mouse has three stages of an anagen, a catagen, and a telogen. During the anagen (the 1st day to the 16th day), the hair follicle grows into the deep subcutaneous part. In the catagen (the 17th day to the 19th day), the hair follicle stops growing and regresses to the upper subcutaneous part. In the telogen (the 20th day to the 29th day), the hair shaft is in a state where it can be lost at any time. It is known that the color of the dorsal skin of a mouse changes to pink, gray, and black due to the hair cycle. FIG. 13 is a view showing a change in the color of the dorsal skin of a mouse due to the hair cycle.
# [7] = tested on: Iqcb1; experiment: Iqcb1 expression from transcriptome / extended network analysis, Experimental Example 8; type: in vivo, mouse; conditions: dorsal skin, 20th day, 1% applied daily
# Procedure: as §1
# DDX58 is an innate immune receptor that senses viral nucleic acids in the cytoplasm and activates a downstream signal transduction cascade leading to the production of type I interferons or inflammatory cytokines. IQCB1 is a protein known to be involved in formation of cilium.
# [8] = fluorescence immunostaining, dorsal skin
smiles,measurement,setting,value
CC(C)(C)NC(=O)[C@H]1CC[C@H]2[C@@H]3CC[C@H]4NC(=O)C=C[C@]4(C)[C@H]3CC[C@]12C [finasteride],"expression of the hair growth marker (CTNNB1, ALPL, FGF1) in HFDPCs",[1],induced the expression of the hair growth marker regardless of the treatment time
CC1(C)CC[C@]2(C(=O)O)CC[C@]3(C)C(=CC[C@@H]4[C@@]5(C)C[C@@H](O)[C@H](O)C(C)(C)[C@@H]5CC[C@]43C)[C@@H]2C1 [maslinic acid],sizes of the hair follicle and the hair shaft,[2]; dorsal skin section,increased
same,expression of K14,[2]; [8],increase in the expression
same,expression of VEGF,[2]; [8],increased
same,expression of β-catenin,[2]; [8],increase in the expression
same,"number of genes with decreased expression common among the minoxidil, maslinic acid and tieghemelin treatment groups",[3],316
same,number of genes with decreased expression common between the minoxidil and maslinic acid treatment groups,[3],Seventy-two
same,"number of genes with increased expression common among the minoxidil, maslinic acid and tieghemelin treatment groups",[3],342
same,number of genes with increased expression common between the minoxidil and maslinic acid treatment groups,[3],Eighty-one
same,functions specifically enriched among skin-tissue genes with increased expression (TSEA),[3]; functions not enriched in the minoxidil treatment group,"skin barriers, keratinocytes, proliferation of epithelial cells, pigmentation, and interactions between cytokines and cytokine receptors"
same,pattern of differentially expressed genes in the dorsal skins,[4],showed the same pattern
same,expression level of BMP4,[5],decreased
same,expression of NF-κB,[5],decreased
same,"black area indicating the late anagen, vs control group","[6]; 10th day, 1% applied daily",larger black area
same,speed of a transition from the telogen to the anagen (order),"[6]; 10th day, 1% applied daily",Minoxidil≈Maslinic acid>Control group
same,hair cycle stage observed on the 20th day,"[6]; 20th day, 1% applied daily",transitioned to the next telogen
same,speed of transition to the telogen after the anagen and the catagen (order),"[6]; 20th day, 1% applied daily",Minoxidil=Maslinic acid>Control group
same,hair cycle stage observed on the 10th day,"[6]; 150 μL of 1% applied daily, control transitioned from telogen to anagen on the 10th day",transition to the late anagen
same,influence on the body weight of the mouse,[6]; 150 μL of 1% applied to dorsal skin every day for 20 days,No influence on the body weight
same,Iqcb1 expression,[7],upregulated
same,expression level of Iqcb1 compared with the minoxidil treatment group,[7],increased more
